TGI data for four molecules are collected here from PubChem BioAssay (NCI).

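Protocol summary: plate cells (96-well), add compound at 5 concentrations, incubate 48 h, interpolate endpoints linearly. TGI marks complete inhibition of growth.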

In the first experiment the test system is SNB-19 CNS. In words: NCI-60 cell line screen, 48 h.
`C/C(CN1C(=O)c2ccccc2C1=O)=N\NS(=O)(=O)c1ccc(Br)cc1` returned a TGI of more than 100 µM.

`CC1CC2OC(=O)C3CC(O)CC(=C23)[C@@]12C[C@@H](c1ccoc1)OC2=O` (stereo partly specified) showed a TGI of more than 100 µM.

As for `NC(=S)NNC(=O)/C(=C/c1ccc(/C=C(\NC(=O)c2ccccc2)C(=O)NNC(N)=S)cc1)NC(=O)c1ccccc1`, the TGI is more than 100 µM.

As for `NC(=O)OCC(COc1ccc(Cl)cc1)OC(=O)c1ccccc1Cl` (stereo unspecified), the TGI was 97.7 µM.

A further experiment has as its system LXFL 529 NSCLC. In words: NCI-60 cell line screen, 48 h.
On to `C/C(CN1C(=O)c2ccccc2C1=O)=N\NS(=O)(=O)c1ccc(Br)cc1`, for which the TGI was more than 100 µM.

Take `CC1CC2OC(=O)C3CC(O)CC(=C23)[C@@]12C[C@@H](c1ccoc1)OC2=O` (stereo partly specified): the TGI is more than 100 µM.

`NC(=S)NNC(=O)/C(=C/c1ccc(/C=C(\NC(=O)c2ccccc2)C(=O)NNC(N)=S)cc1)NC(=O)c1ccccc1` returned a TGI of more than 100 µM.

For `NC(=O)OCC(COc1ccc(Cl)cc1)OC(=O)c1ccccc1Cl` (stereo unspecified), the TGI stood at 64.6 µM.

The test system of the next experiment is M14 melanoma. In words: NCI-60 cell line screen, 48 h.
Regarding `C/C(CN1C(=O)c2ccccc2C1=O)=N\NS(=O)(=O)c1ccc(Br)cc1`, the TGI is more than 100 µM.

On to `CC1CC2OC(=O)C3CC(O)CC(=C23)[C@@]12C[C@@H](c1ccoc1)OC2=O` (stereo partly specified), for which the TGI was more than 100 µM.

`NC(=S)NNC(=O)/C(=C/c1ccc(/C=C(\NC(=O)c2ccccc2)C(=O)NNC(N)=S)cc1)NC(=O)c1ccccc1` registered a TGI of more than 100 µM.

The molecule `NC(=O)OCC(COc1ccc(Cl)cc1)OC(=O)c1ccccc1Cl` (stereo unspecified) yielded a TGI of 32.8 µM.

In a further experiment the test system is IGROV1 ovarian. In words: NCI-60 cell line screen, 48 h.
With `C/C(CN1C(=O)c2ccccc2C1=O)=N\NS(=O)(=O)c1ccc(Br)cc1`, the TGI was more than 100 µM.

As for `CC1CC2OC(=O)C3CC(O)CC(=C23)[C@@]12C[C@@H](c1ccoc1)OC2=O` (stereo partly specified), the TGI was more than 100 µM.

Molecule `NC(=S)NNC(=O)/C(=C/c1ccc(/C=C(\NC(=O)c2ccccc2)C(=O)NNC(N)=S)cc1)NC(=O)c1ccccc1` displayed a TGI of more than 100 µM.

In the case of `NC(=O)OCC(COc1ccc(Cl)cc1)OC(=O)c1ccccc1Cl` (stereo unspecified), the TGI was 59.9 µM.

The test system of a further experiment is UACC-62 melanoma. In words: NCI-60 cell line screen, 48 h.
The molecule `C/C(CN1C(=O)c2ccccc2C1=O)=N\NS(=O)(=O)c1ccc(Br)cc1` yielded a TGI of more than 100 µM.

`CC1CC2OC(=O)C3CC(O)CC(=C23)[C@@]12C[C@@H](c1ccoc1)OC2=O` (stereo partly specified) gave a TGI of more than 100 µM.

Molecule `NC(=S)NNC(=O)/C(=C/c1ccc(/C=C(\NC(=O)c2ccccc2)C(=O)NNC(N)=S)cc1)NC(=O)c1ccccc1` came in with a TGI of more than 100 µM.

As for `NC(=O)OCC(COc1ccc(Cl)cc1)OC(=O)c1ccccc1Cl` (stereo unspecified), the TGI was 31.4 µM.

For another experiment, the system named is DMS 273 small cell lung. In words: NCI-60 cell line screen, 48 h.
The molecule `C/C(CN1C(=O)c2ccccc2C1=O)=N\NS(=O)(=O)c1ccc(Br)cc1` had a TGI of more than 100 µM.

The molecule `CC1CC2OC(=O)C3CC(O)CC(=C23)[C@@]12C[C@@H](c1ccoc1)OC2=O` (stereo partly specified) displayed a TGI of more than 100 µM.

As to `NC(=S)NNC(=O)/C(=C/c1ccc(/C=C(\NC(=O)c2ccccc2)C(=O)NNC(N)=S)cc1)NC(=O)c1ccccc1`, the TGI is more than 100 µM.

`NC(=O)OCC(COc1ccc(Cl)cc1)OC(=O)c1ccccc1Cl` (stereo unspecified) came in with a TGI of 36.4 µM.

The next experiment relates to SK-MEL-2 melanoma. In words: NCI-60 cell line screen, 48 h.
For `C/C(CN1C(=O)c2ccccc2C1=O)=N\NS(=O)(=O)c1ccc(Br)cc1`, the TGI was more than 100 µM.

`CC1CC2OC(=O)C3CC(O)CC(=C23)[C@@]12C[C@@H](c1ccoc1)OC2=O` (stereo partly specified) showed a TGI of more than 100 µM.

`NC(=S)NNC(=O)/C(=C/c1ccc(/C=C(\NC(=O)c2ccccc2)C(=O)NNC(N)=S)cc1)NC(=O)c1ccccc1`: the TGI is more than 100 µM.

Regarding `NC(=O)OCC(COc1ccc(Cl)cc1)OC(=O)c1ccccc1Cl` (stereo unspecified), the TGI came out at 34.1 µM.

A further experiment concerns TK-10 renal. In words: NCI-60 cell line screen, 48 h.
In turn, `C/C(CN1C(=O)c2ccccc2C1=O)=N\NS(=O)(=O)c1ccc(Br)cc1` came in with a TGI of more than 100 µM.

As for `CC1CC2OC(=O)C3CC(O)CC(=C23)[C@@]12C[C@@H](c1ccoc1)OC2=O` (stereo partly specified), the TGI was more than 100 µM.

The molecule `NC(=S)NNC(=O)/C(=C/c1ccc(/C=C(\NC(=O)c2ccccc2)C(=O)NNC(N)=S)cc1)NC(=O)c1ccccc1` came in with a TGI of more than 100 µM.

In turn, `NC(=O)OCC(COc1ccc(Cl)cc1)OC(=O)c1ccccc1Cl` (stereo unspecified) displayed a TGI of 79.9 µM.

The subject of the next experiment is A498 renal. In words: NCI-60 cell line screen, 48 h.
`C/C(CN1C(=O)c2ccccc2C1=O)=N\NS(=O)(=O)c1ccc(Br)cc1` showed a TGI of more than 100 µM.

`NC(=S)NNC(=O)/C(=C/c1ccc(/C=C(\NC(=O)c2ccccc2)C(=O)NNC(N)=S)cc1)NC(=O)c1ccccc1` returned a TGI of more than 100 µM.

As to `NC(=O)OCC(COc1ccc(Cl)cc1)OC(=O)c1ccccc1Cl` (stereo unspecified), the TGI is more than 100 µM.

The next experiment has as its system HCC-2998 colon. In words: NCI-60 cell line screen, 48 h.
For the molecule `C/C(CN1C(=O)c2ccccc2C1=O)=N\NS(=O)(=O)c1ccc(Br)cc1`, the TGI was more than 100 µM.

On to `CC1CC2OC(=O)C3CC(O)CC(=C23)[C@@]12C[C@@H](c1ccoc1)OC2=O` (stereo partly specified), for which the TGI is more than 100 µM.

For the molecule `NC(=S)NNC(=O)/C(=C/c1ccc(/C=C(\NC(=O)c2ccccc2)C(=O)NNC(N)=S)cc1)NC(=O)c1ccccc1`, the TGI is more than 100 µM.

`NC(=O)OCC(COc1ccc(Cl)cc1)OC(=O)c1ccccc1Cl` (stereo unspecified) came in with a TGI of 43.5 µM.

In a further experiment the test system is HT29 colon. In words: NCI-60 cell line screen, 48 h.
Molecule `C/C(CN1C(=O)c2ccccc2C1=O)=N\NS(=O)(=O)c1ccc(Br)cc1` had a TGI of more than 100 µM.

For the molecule `CC1CC2OC(=O)C3CC(O)CC(=C23)[C@@]12C[C@@H](c1ccoc1)OC2=O` (stereo partly specified), the TGI is more than 100 µM.

As for `NC(=S)NNC(=O)/C(=C/c1ccc(/C=C(\NC(=O)c2ccccc2)C(=O)NNC(N)=S)cc1)NC(=O)c1ccccc1`, the TGI was more than 100 µM.

`NC(=O)OCC(COc1ccc(Cl)cc1)OC(=O)c1ccccc1Cl` (stereo unspecified) returned a TGI of 33.2 µM.

In another experiment the test system is CAKI-1 renal. In words: NCI-60 cell line screen, 48 h.
Turning to `C/C(CN1C(=O)c2ccccc2C1=O)=N\NS(=O)(=O)c1ccc(Br)cc1`, the TGI is more than 100 µM.

`NC(=S)NNC(=O)/C(=C/c1ccc(/C=C(\NC(=O)c2ccccc2)C(=O)NNC(N)=S)cc1)NC(=O)c1ccccc1` came in with a TGI of more than 100 µM.

In the case of `NC(=O)OCC(COc1ccc(Cl)cc1)OC(=O)c1ccccc1Cl` (stereo unspecified), the TGI came out at 74.8 µM.

The next experiment deals with SR leukemia. In words: NCI-60 cell line screen, 48 h.
The molecule `CC1CC2OC(=O)C3CC(O)CC(=C23)[C@@]12C[C@@H](c1ccoc1)OC2=O` (stereo partly specified) showed a TGI of more than 100 µM.

In turn, `NC(=S)NNC(=O)/C(=C/c1ccc(/C=C(\NC(=O)c2ccccc2)C(=O)NNC(N)=S)cc1)NC(=O)c1ccccc1` returned a TGI of more than 63 µM.

In turn, `NC(=O)OCC(COc1ccc(Cl)cc1)OC(=O)c1ccccc1Cl` (stereo unspecified) came in with a TGI of 51.7 µM.

A further experiment concerns SK-MEL-28 melanoma. In words: NCI-60 cell line screen, 48 h.
`C/C(CN1C(=O)c2ccccc2C1=O)=N\NS(=O)(=O)c1ccc(Br)cc1` yielded a TGI of more than 100 µM.

Take `CC1CC2OC(=O)C3CC(O)CC(=C23)[C@@]12C[C@@H](c1ccoc1)OC2=O` (stereo partly specified): the TGI was more than 100 µM.

As to `NC(=S)NNC(=O)/C(=C/c1ccc(/C=C(\NC(=O)c2ccccc2)C(=O)NNC(N)=S)cc1)NC(=O)c1ccccc1`, the TGI is more than 100 µM.

In turn, `NC(=O)OCC(COc1ccc(Cl)cc1)OC(=O)c1ccccc1Cl` (stereo unspecified) came in with a TGI of 37.7 µM.

The subject of a further experiment is HL-60(TB) leukemia. In words: NCI-60 cell line screen, 48 h.
As for `C/C(CN1C(=O)c2ccccc2C1=O)=N\NS(=O)(=O)c1ccc(Br)cc1`, the TGI was more than 100 µM.

For the molecule `CC1CC2OC(=O)C3CC(O)CC(=C23)[C@@]12C[C@@H](c1ccoc1)OC2=O` (stereo partly specified), the TGI is more than 100 µM.

For `NC(=S)NNC(=O)/C(=C/c1ccc(/C=C(\NC(=O)c2ccccc2)C(=O)NNC(N)=S)cc1)NC(=O)c1ccccc1`, the TGI is more than 31.6 µM.
